Data taken from patent US8236963B2, “Tricyclic spiro derivatives as CRTH2 modulators” (Merck Serono SA, priority 2005, dated 2012).

Molecular target: T1, CRTH2 (Homo sapiens, UniProt Q9Y5Y4)
T1 sequence (Q9Y5Y4 1-395): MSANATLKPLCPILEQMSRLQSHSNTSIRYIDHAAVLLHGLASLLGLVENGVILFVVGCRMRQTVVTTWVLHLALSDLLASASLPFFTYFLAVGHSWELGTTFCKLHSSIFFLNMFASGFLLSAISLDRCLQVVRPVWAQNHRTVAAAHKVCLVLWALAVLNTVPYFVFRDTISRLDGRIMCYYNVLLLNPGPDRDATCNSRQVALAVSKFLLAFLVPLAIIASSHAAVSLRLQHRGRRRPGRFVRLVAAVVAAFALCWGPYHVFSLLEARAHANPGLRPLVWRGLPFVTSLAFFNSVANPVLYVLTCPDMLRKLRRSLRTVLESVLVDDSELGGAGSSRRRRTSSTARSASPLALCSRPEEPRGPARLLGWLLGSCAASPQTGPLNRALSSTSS
Assay: Radioligand binding assay ([3H]PGD2, hCRTH2 HEK293 (EBNA) cell membranes)
Set-up: expressed in transfected cells; host or cells: HEK293 (EBNA) cells, membrane preparation
Conditions: 1.5 nM [3H]PGD2, 10 μg hCRTH2 HEK293 (EBNA) membrane protein, 60 min at room temperature
Excerpt: Human CRTH2 cDNA was amplified by PCR using a human urinary bladder cDNA library as a template and specific primers containing HindIII and BamHI restriction sites for cloning into the pCEP4 vector (Invitrogen). The vector construction is described in detail in Sawyer et al., Br. J. Pharmocol 2002, 137, 1163-72. The nucleotide sequence of the cloned cDNA was identical the previously reported hCRTH2 sequence (Nagata et al, 1999, J. Immunol. 162, 1278-1286).
HEK293 (EBNA) cells were transfected with the pCEP4-hCRTH2 construct using the calcium phosphate technique. Cells were maintained in culture at 37° C. in an atmosphere of 5% CO2 in Dulbecco's modified Eagle's F12 medium (Invitrogen), containing 10% heat-inactivated foetal calf serum (TerraCell International, Canada), 2 mM Glutamine, 100 units/ml of penicillin and 100 μg/ml streptomycin (Invitrogen). 48 hours after the transfection, cells were grown in presence of 300 μg/ml of Hygromycin B (Invitrogen) for 4 weeks and antibiotic resistant cells were amplified for cell membrane preparation.
Adherent HEK293 (EBNA) cells expressing hCRTH2 were cultured in 225 cm^2 cell culture flasks (Corning, USA) in 30 ml of medium. After two rinses of phosphate buffered saline (PBS), cells were harvested in 10 ml of PBS containing 1 mM EDTA, centrifuged at 500×g for 5 min at 4° C. and frozen at −80° C. The pellet was re-suspended in 50 mM Tris-HCl, pH 7.4, 2 mM EDTA, 250 mM Sucrose, containing protease inhibitor cocktail tablets, (Complete EDTA-free, Roche, Germany) and incubated 30 min at 4° C. Cells were disrupted by nitrogen cavitation (Parr Instruments, USA) at 4° C. (800 p.s.i. for 30 min), and centrifuged at 500×g for 10 min at 4° C. Pellet containing nuclei and cellular debris was discarded and supernatant was centrifuged 60 min at 4° C. at 45000×g. Membrane pellet was re-suspended in storage buffer (10 mM HEPES/KOH pH 7.4, 1 mM EDTA, 250 mM sucrose, protease inhibitor cocktail tablets) using Dounce homogenization and frozen in liquid nitrogen, and stored at −80° C.
The inhibitory activity can be investigated by a radioligand binding assay (Sawyer et al., Br. J. Pharmocol 2002, 137, 1163-72). The radioligand binding assay was performed at room temperature in binding buffer (10 mM HEPES/KOH pH […], with protease inhibitor cocktail tablets), containing 1.5 nM [^3H]PGD2 (Amersham, 156 Cie/mmol), and 10 μg of hCRTH2 HEK293 (EBNA) cell membrane protein in a final volume of 100 μl in 96 well plates (Corning, USA). Non-specific binding was determined in the presence of 1 μM PGD2 (Cayman, USA). Competing spiro-indolinones were diluted in dimethylsulphoxide so that the total volume of dimethylsulfoxide was kept constant at 1% dimethylsulphoxide (Me2SO) Serial dilutions of 100 μM and […] were prepared. 10 μl each of these spiro-indolinone stock solutions were added. Incubation (60 min at room temperature) was terminated by rapid filtration through 96 wells hydrophobic GF/C Unifilter plates (Whatman, USA). Filters were washed twice with 250 μl of Tris-HCl pH 7.4, 10 mM MnCl2, and residual radioligand bound to the filters was mixed to 100 μl of liquid scintillation cocktail (Optiphase Supermix, Perkin Elmer, USA) and binding activity was determined by counting residual radioligand using a 1450 Micro-beta scintillation counter (Wallac, UK). The following representative compounds were tested. […]

inhibition, > 70%:
O=C(O)CCCN1C(=O)C2(CC(=O)N(Cc3ccccc3)C2=O)c2cc(F)ccc21 (centres unmarked) [4-(1′-benzyl-5-fluoro-2,2′,5′-trioxospiro[indole-3,3′-pyrrolidin]-1(2H)-yl)butanoic acid]
O=C(O)CN1C(=O)C2(CC(=O)N(Cc3ccccc3)C2=O)c2cc(F)ccc21 (centres unmarked) [(1′-benzyl-5-fluoro-2,2′,5′-trioxospiro[indole-3,3′-pyrrolidin]-1(2H)-yl)acetic acid]
COc1ccc2c(c1)C1(CC(=O)N(Cc3ccccc3)C1=O)C(=O)N2CC(=O)O (centres unmarked) [(1′-benzyl-5-methoxy-2,2′,5′-trioxospiro[indole-3,3′-pyrrolidin]-1(2H)-yl)acetic acid]
COCCN1C(=O)CC2(C1=O)C(=O)N(CC(=O)O)c1ccc(Cl)cc12 (centres unmarked) [[5-chloro-1′-(2-methoxyethyl)-2,2′,5′-trioxospiro[indole-3,3′-pyrrolidin]-1(2H)-yl]acetic acid]
COCCOCN1C(=O)CC2(C1=O)C(=O)N(CC(=O)O)c1ccc(F)cc12 (centres unmarked) [[5-fluoro-1′-[(2-methoxyethoxy)methyl]-2,2′,5′-trioxospiro[indole-3,3′-pyrrolidin]-1(2H)-yl]acetic acid]
